Experimental data as given in patent US7662781B2, “Immunopotentiating agent” (ECI, Inc., priority 2005, dated 2010).

B1: MIP-1α: molecule of about 70 amino acids belonging to the C—C chemokine family, ligand for CCR1 and CCR5 (protein, UniProt P10147 24-92, looked up)
C-C motif chemokine 3: SLAADTPTACCFSYTSRQIPQNFIADYFETSSQCSKPGVIFLTKRSRQVCADPSEEWVQKYVSDLELSA

Key:
[1] = system: Lewis lung carcinoma (3LL); experiment: Lung metastasis system of intravenously injected 3LL; assay type: in vivo, C57BL/6 mice; details: 25 mg/mouse, twice a week
Experimental: By using a lung metastasis system of Lewis lung carcinoma (3LL), the tumor metastasis inhibition effect of eMIP was evaluated. Female C57BL/6 mice aged 7 weeks were employed. 10^6 3LL cells were injected into each animal via the tail vein. After 25 days, the lungs were taken out, weighed and fixed with Bouin' solution. Then, cancer tissues metastasized into the lungs were counted under a stereoscopic microscope. 30 minutes after the 3LL transplantation, eMIP was injected as the first administration followed by continuous administration once a week for 4 weeks. In the system wherein the administration was initiated 7 days after the 3LL transplantation, the effect of eMIP was examined. 5Fu employed as a control was administered twice a week.

[2] = system: dendritic cell precursors; details: Yoneyama 2001; Zhang 2004; cited from earlier work

| Molecule | inhibition rate of metastasis into the lungs [1] [%] | mobilization of dendritic cell precursors in the blood [2] |
| --- | --- | --- |
| O=c1[nH]cc(F)c(=O)[nH]1 [5Fu] | 78 |  |
| B1 |  | several ten-fold |
